According to ChEMBL document CHEMBL1201862, “PubChem BioAssay data set” (2004):
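Five compound concentrations were applied to cells in 96-well plates for 48 hours; endpoints were derived by simple linear interpolation of the resulting dose-response curve. The concentration for 50% growth inhibition is given as GI50.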 Activity calls are given as the source filed them. No stated cut-off is given here; in the data, active = GI50 up to about 1.1 µM and inactive = higher.

Columns and labels:
Experiment in all cases: NCI tumour cell line growth inhibition, 48 h
M14 = tested on: M14
EKVX = tested on: EKVX
SR = tested on: SR
LOX IMVI = tested on: LOX IMVI
TK-10 = tested on: TK-10
ACHN = tested on: ACHN
LXFL 529 = tested on: LXFL 529
Malme-3M = tested on: Malme-3M
SF-268 = tested on: SF-268
NCI-H522 = tested on: NCI-H522
CAKI-1 = tested on: CAKI-1
NCI-H226 = tested on: NCI-H226
A549 = tested on: A549
COLO 205 = tested on: COLO 205
SNB-78 = tested on: SNB-78
UACC-257 = tested on: UACC-257
HOP-92 = tested on: HOP-92
DLD-1 = tested on: DLD-1
SK-MEL-28 = tested on: SK-MEL-28
OVCAR-4 = tested on: OVCAR-4
M19-MEL = tested on: M19-MEL
HL-60 = tested on: HL-60
CCRF-CEM = tested on: CCRF-CEM
NCI-H460 = tested on: NCI-H460
SK-MEL-2 = tested on: SK-MEL-2
HCT-15 = tested on: HCT-15
MOLT-4 = tested on: MOLT-4
XF498 = tested on: XF498
NCI-H23 = tested on: NCI-H23
SK-OV-3 = tested on: SK-OV-3
U-251 = tested on: U-251
SF-539 = tested on: SF-539
OVCAR-3 = tested on: OVCAR-3
SNB-19 = tested on: SNB-19
UO-31 = tested on: UO-31
KM12 = tested on: KM12
OVCAR-5 = tested on: OVCAR-5
DMS-114 = tested on: DMS-114
HCC 2998 = tested on: HCC 2998
HOP-62 = tested on: HOP-62
RPMI-8226 = tested on: RPMI-8226
786-0 = tested on: 786-0
UACC-62 = tested on: UACC-62
HCT-116 = tested on: HCT-116
SK-MEL-5 = tested on: SK-MEL-5
IGROV-1 = tested on: IGROV-1
OVCAR-8 = tested on: OVCAR-8
A498 = tested on: A498
K562 = tested on: K562
HOP-18 = tested on: HOP-18
DMS-273 = tested on: DMS-273
SW-620 = tested on: SW-620
HT-29 = tested on: HT-29
SF-295 = tested on: SF-295
SNB-75 = tested on: SNB-75
KM-20L2 = tested on: KM-20L2
SN12C = tested on: SN12C
RXF 393 = tested on: RXF 393

For `C#CCC(N)(CO)C(=O)O` (configuration not stated), the GI50 (M14) was > 100 µM (inactive), the GI50 (EKVX) was > 100 µM (inactive) and the GI50 (SR) was > 100 µM (inactive). The GI50 (LOX IMVI) was > 100 µM (inactive), the GI50 (TK-10) was > 100 µM (inactive) and the GI50 (ACHN) was > 100 µM (inactive). The GI50 (LXFL 529) was > 100 µM (inactive), the GI50 (Malme-3M) was > 100 µM (inactive) and the GI50 (SF-268) was > 100 µM (inactive). The GI50 (NCI-H522) was > 100 µM (inactive), the GI50 (CAKI-1) was > 100 µM (inactive) and the GI50 (NCI-H226) was > 100 µM (inactive). For the same compound, the GI50 (A549) was > 100 µM (inactive), the GI50 (COLO 205) was > 100 µM (inactive) and the GI50 (SNB-78) was > 100 µM (inactive). For the same compound, the GI50 (UACC-257) was > 100 µM (inactive), the GI50 (HOP-92) was > 100 µM (inactive) and the GI50 (DLD-1) was > 100 µM (inactive). The GI50 (SK-MEL-28) was > 100 µM (inactive), the GI50 (OVCAR-4) was > 100 µM (inactive) and the GI50 (M19-MEL) was > 100 µM (inactive). The GI50 (HL-60) was > 100 µM (inactive), the GI50 (CCRF-CEM) was > 10 µM (inactive) and the GI50 (NCI-H460) was > 100 µM (inactive). The GI50 (SK-MEL-2) was > 100 µM (inactive), the GI50 (HCT-15) was over 100 µM and the GI50 (MOLT-4) was > 100 µM (inactive). The GI50 (XF498) was > 100 µM (inactive), the GI50 (NCI-H23) was > 100 µM (inactive) and the GI50 (SK-OV-3) was > 100 µM (inactive). For the same compound, the GI50 (U-251) was > 100 µM (inactive), the GI50 (SF-539) was > 100 µM (inactive) and the GI50 (OVCAR-3) was > 100 µM (inactive). The GI50 (SNB-19) was > 100 µM (inactive), the GI50 (UO-31) was > 100 µM (inactive) and the GI50 (KM12) was > 100 µM (inactive). The GI50 (OVCAR-5) was > 100 µM (inactive), the GI50 (DMS-114) was > 100 µM (inactive) and the GI50 (HCC 2998) was > 100 µM (inactive). The GI50 (HOP-62) was > 100 µM (inactive), the GI50 (RPMI-8226) was > 100 µM (inactive) and the GI50 (786-0) was > 100 µM (inactive). For the same compound, the GI50 (UACC-62) was > 100 µM (inactive), the GI50 (HCT-116) was > 100 µM (inactive) and the GI50 (SK-MEL-5) was > 100 µM (inactive). For the same compound, the GI50 (IGROV-1) was > 100 µM (inactive), the GI50 (OVCAR-8) was > 100 µM (inactive) and the GI50 (A498) was > 100 µM (inactive). The GI50 (K562) was > 100 µM (inactive), the GI50 (HOP-18) was > 100 µM (inactive) and the GI50 (DMS-273) was > 100 µM (inactive). The GI50 (SW-620) was > 100 µM (inactive), the GI50 (HT-29) was > 100 µM (inactive) and the GI50 (SF-295) was > 100 µM (inactive). The GI50 (SNB-75) was 82.6 µM (inactive).
In the case of `CC(C)N/C(N)=N/C#N`, the GI50 (M14) is reported as > 100 µM (inactive), the GI50 (EKVX) is reported as > 100 µM (inactive) and the GI50 (LOX IMVI) is reported as > 100 µM (inactive). For the same compound, the GI50 (ACHN) was > 100 µM (inactive), the GI50 (LXFL 529) was > 100 µM (inactive) and the GI50 (Malme-3M) was > 100 µM (inactive). The GI50 (SF-268) was > 100 µM (inactive), the GI50 (NCI-H522) was > 100 µM (inactive) and the GI50 (CAKI-1) was > 100 µM (inactive). The GI50 (NCI-H226) was > 100 µM (inactive), the GI50 (A549) was > 100 µM (inactive) and the GI50 (COLO 205) was > 100 µM (inactive). For the same compound, the GI50 (SNB-78) was > 100 µM (inactive), the GI50 (UACC-257) was > 100 µM (inactive) and the GI50 (DLD-1) was > 100 µM (inactive). For the same compound, the GI50 (OVCAR-4) was > 100 µM (inactive), the GI50 (M19-MEL) was > 100 µM (inactive) and the GI50 (HL-60) was > 100 µM (inactive). The GI50 (CCRF-CEM) was > 100 µM (inactive), the GI50 (NCI-H460) was > 100 µM (inactive) and the GI50 (SK-MEL-2) was > 100 µM (inactive). The GI50 (HCT-15) was over 100 µM, the GI50 (MOLT-4) was > 100 µM (inactive) and the GI50 (KM-20L2) was > 100 µM (inactive). For the same compound, the GI50 (XF498) was > 100 µM (inactive), the GI50 (SK-OV-3) was > 100 µM (inactive) and the GI50 (SF-539) was > 100 µM (inactive). For the same compound, the GI50 (OVCAR-3) was > 100 µM (inactive), the GI50 (SNB-19) was > 100 µM (inactive) and the GI50 (UO-31) was > 100 µM (inactive). For the same compound, the GI50 (KM12) was > 100 µM (inactive), the GI50 (OVCAR-5) was > 100 µM (inactive) and the GI50 (DMS-114) was > 100 µM (inactive). For the same compound, the GI50 (HCC 2998) was > 100 µM (inactive), the GI50 (HOP-62) was > 100 µM (inactive) and the GI50 (RPMI-8226) was > 100 µM (inactive). For the same compound, the GI50 (UACC-62) was > 100 µM (inactive), the GI50 (HCT-116) was > 100 µM (inactive) and the GI50 (SN12C) was > 100 µM (inactive). For the same compound, the GI50 (IGROV-1) was > 100 µM (inactive), the GI50 (OVCAR-8) was > 100 µM (inactive) and the GI50 (A498) was > 100 µM (inactive). For the same compound, the GI50 (K562) was > 100 µM (inactive), the GI50 (HOP-18) was > 100 µM (inactive) and the GI50 (SW-620) was > 100 µM (inactive). The GI50 (HT-29) was > 100 µM (inactive), the GI50 (SF-295) was > 100 µM (inactive) and the GI50 (SNB-75) was > 100 µM (inactive).
With `C=CN1C(=O)[C@H](Oc2ccccc2)[C@@H]1c1ccccc1` the GI50 (M14) was 33.1 µM (inactive), the GI50 (EKVX) was 47.8 µM (inactive) and the GI50 (SR) was 40.3 µM (inactive). For the same compound, the GI50 (TK-10) was 37.2 µM (inactive), the GI50 (ACHN) was 32 µM (inactive) and the GI50 (LXFL 529) was 31.4 µM (inactive). The GI50 (Malme-3M) was 63.2 µM (inactive), the GI50 (SF-268) was 37.2 µM (inactive) and the GI50 (NCI-H522) was 32.6 µM (inactive). The GI50 (NCI-H226) was 44.4 µM (inactive), the GI50 (A549) was 26.8 µM (inactive) and the GI50 (SNB-78) was 43.5 µM (inactive). The GI50 (UACC-257) was 41.5 µM (inactive), the GI50 (DLD-1) was 28.5 µM (inactive) and the GI50 (SK-MEL-28) was 36.4 µM (inactive). For the same compound, the GI50 (M19-MEL) was 43.4 µM (inactive), the GI50 (CCRF-CEM) was 46.8 µM (inactive) and the GI50 (NCI-H460) was 30.3 µM (inactive). The GI50 (SK-MEL-2) was 12.9 µM (inactive), the GI50 (HCT-15) was 41.1 µM and the GI50 (MOLT-4) was 36.6 µM (inactive). The GI50 (KM-20L2) was 31.7 µM (inactive), the GI50 (XF498) was 26.1 µM (inactive) and the GI50 (NCI-H23) was 21.7 µM (inactive). The GI50 (SK-OV-3) was 32.1 µM (inactive), the GI50 (U-251) was 36.4 µM (inactive) and the GI50 (SF-539) was 16.2 µM (inactive). The GI50 (SNB-19) was 33.6 µM (inactive), the GI50 (UO-31) was 36.3 µM (inactive) and the GI50 (KM12) was 33 µM (inactive). For the same compound, the GI50 (OVCAR-5) was > 100 µM (inactive), the GI50 (DMS-114) was 27.6 µM (inactive) and the GI50 (HCC 2998) was 47.4 µM (inactive). For the same compound, the GI50 (HOP-62) was 32.7 µM (inactive), the GI50 (RPMI-8226) was 20.3 µM (inactive) and the GI50 (786-0) was 18.9 µM (inactive). For the same compound, the GI50 (HCT-116) was 24.9 µM (inactive), the GI50 (SK-MEL-5) was 31.5 µM (inactive) and the GI50 (RXF 393) was 17.8 µM (inactive). For the same compound, the GI50 (SN12C) was 32.7 µM (inactive), the GI50 (IGROV-1) was > 100 µM (inactive) and the GI50 (OVCAR-8) was 23.8 µM (inactive). The GI50 (A498) was 71.4 µM (inactive), the GI50 (K562) was 36.3 µM (inactive) and the GI50 (HOP-18) was 37.8 µM (inactive). For the same compound, the GI50 (SW-620) was 33.3 µM (inactive), the GI50 (HT-29) was 22.7 µM (inactive) and the GI50 (SF-295) was 26.1 µM (inactive). The GI50 (SNB-75) was 15.6 µM (inactive).
